From ChEMBL document CHEMBL1122236, “3'-Amino-2',3'-dideoxyribonucleosides of some pyrimidines: synthesis and biological activities” (1983) come the findings set out here.

In brackets after ≈: the same amount, converted by molar mass. Activity calls are given as the source filed them. The calls are words filed in the database; no cut-off is given here.

For one experiment, the system named is Serratia marcescens. As to the kind of experiment: Minimum inhibitory concentration against Serratia marcescens. It is filed as functional.
The test system of a further experiment is Staphylococcus aureus. Kind of experiment: In vitro minimum inhibitory concentration against Staphylococcus aureus. The class given is functional.
In a further experiment the test system is Salmonella typhimurium. Kind of experiment: Minimum inhibitory concentration against Salmonella Typhimurium. The conditions noted are these: Salmonella enterica. The class given is functional, Salmonella enterica subsp. enterica serovar Typhimurium.
The subject of a further experiment is Salmonella. Kind of experiment: Minimum inhibitory concentration against Salmonella typhi. It is filed as functional, salmonella typhosa.
The subject of a further experiment is Escherichia coli. As to the kind of experiment: Minimum inhibitory concentration against Escherichia coli. The class given is functional.
The next experiment concerns Proteus mirabilis. As to the kind of experiment: Minimum inhibitory concentration against Proteus mirabilis. It is filed as functional.
The next experiment relates to Citrobacter freundii. As to the kind of experiment: Minimum inhibitory concentration against Citrobacter freundii. It is filed as functional.
The next experiment relates to Shigella flexneri. Kind of experiment: Minimum inhibitory concentration against Shigella flexneri. The class given is functional.
In a further experiment the test system is L cells. Kind of experiment: in vitro cytotoxicity against mouse L cells. The class given is functional. The conditions noted are these: L929, read-out: ED50 (the source's name).
The next experiment relates to Klebsiella pneumoniae. Kind of experiment: Minimum inhibitory concentration against Klebsiella pneumoniae. It is filed as functional.
The next experiment concerns Proteus vulgaris. Kind of experiment: Minimum inhibitory concentration against Proteus vulgaris. It is filed as functional.
The subject of another experiment is unidentified adenovirus. As to the kind of experiment: In vitro antiviral activity against adeno virus using plaque reduction assay. It is filed as functional. The conditions noted are these: read-out: ED50 (the source's name).
The test system of another experiment is Vibrio cholerae. Kind of experiment: Minimum inhibitory concentration against Vibrio cholerae. It is filed as functional.
For another experiment, the system named is D-38. As to the kind of experiment: In vitro cytotoxicity against human D-38 cells. The conditions noted are these: read-out: ED50 (the source's name). It is filed as functional.
The test system of another experiment is Pasteurella multocida. As to the kind of experiment: Minimum inhibitory concentration against Pasteurella multocida. The class given is functional.
A further experiment deals with Pseudomonas aeruginosa. Kind of experiment: Minimum inhibitory concentration against Pseudomonas aeruginosa. The class given is functional.
Another experiment relates to Klebsiella aerogenes. Kind of experiment: Minimum inhibitory concentration against Enterobacter aerogenes. It is filed as functional.
The next experiment relates to Priestia megaterium. Kind of experiment: Minimum inhibitory concentration against Bacillus megaterium. It is filed as functional.
The test system of a further experiment is Enterococcus faecalis. As to the kind of experiment: Minimum inhibitory concentration against Streptococcus faecalis. It is filed as functional.
For another experiment, the system named is Streptococcus pyogenes. As to the kind of experiment: Minimum inhibitory concentration against Streptococcus pyogenes. The class given is functional.
Experiment [1] concerns Escherichia coli (organism). As to the kind of experiment: Minimum inhibitory concentration against Escherichia coli.
In the next experiment the test system is Candida albicans. As to the kind of experiment: Minimum inhibitory concentration against Candida albicans. The class given is functional.
The next experiment concerns Streptococcus agalactiae. Kind of experiment: Minimum inhibitory concentration against Streptococcus agalactiae. The class given is functional.
Another experiment deals with P388. Kind of experiment: Activity against P-388/0 mouse tumor at 675 mg/kg administered three times on days 1, 5, 9 after implantation; Inactive. The class given is functional, organism-based. Set-up: dose 675 mg/kg.

For orientation: MIC means the least concentration at which growth counts as inhibited. For the compound `Cc1cn([C@H]2C[C@H](N)[C@@H](CO)O2)c(=O)[nH]c1=O` [3-AMINO- 3-DEOXYTHYMIDINE], the MIC is over 200 µM against Serratia marcescens; over 400 µM with Staphylococcus aureus; over 200 µM in the experiment on Salmonella typhimurium; over 200 µM in the experiment with Salmonella; over 200 µM with Escherichia coli; over 200 µM in the experiment on Proteus mirabilis. Moreover, the MIC with Citrobacter freundii, with Shigella flexneri, against Klebsiella pneumoniae, against Proteus vulgaris, in the experiment with Vibrio cholerae and in the experiment with Pasteurella multocida was over 200 µM each time. The MIC against Pseudomonas aeruginosa and in the experiment with Klebsiella aerogenes was over 200 µM each time. Also, the EC50 in the experiment with L cells was 3 µM; in the experiment on unidentified adenovirus, over 100 µM; in the experiment on D-38, 100 µM.
As for `Nc1ccn([C@H]2C[C@H](N)[C@@H](CO)O2)c(=O)n1`, the MIC is over 200 µM in the experiment on Serratia marcescens; over 400 µM against Staphylococcus aureus; over 200 µM against Salmonella typhimurium; over 200 µM in the experiment with Salmonella; over 200 µM in the experiment on Escherichia coli; over 200 µM in the experiment with Proteus mirabilis. Also, the MIC against Citrobacter freundii, in the experiment with Shigella flexneri, with Klebsiella pneumoniae, with Proteus vulgaris, against Vibrio cholerae and against Pasteurella multocida was over 200 µM in each case. Moreover, the MIC in the experiment with Pseudomonas aeruginosa and against Klebsiella aerogenes was over 200 µM in each case. The EC50 with L cells was 1 µM; in the experiment on unidentified adenovirus it was over 100 µM; in the experiment with D-38, 3 µM.
As to `N[C@H]1C[C@H](n2ccc(=O)[nH]c2=O)O[C@@H]1CO`, the MIC against Serratia marcescens is over 200 µM; with Staphylococcus aureus, over 400 µM; in the experiment with Salmonella typhimurium it was over 200 µM; in the experiment on Salmonella, over 200 µM; against Escherichia coli, over 200 µM; in the experiment with Proteus mirabilis, over 200 µM. In addition, the minimum inhibitory concentration (MIC) in the experiment with Citrobacter freundii, against Shigella flexneri, in the experiment with Klebsiella pneumoniae, against Proteus vulgaris, in the experiment with Vibrio cholerae and against Pasteurella multocida was over 200 µM each time. Moreover, the MIC with Pseudomonas aeruginosa and in the experiment on Klebsiella aerogenes was over 200 µM throughout. Moreover, the EC50 in the experiment on L cells, in the experiment on unidentified adenovirus and with D-38 was over 100 µM in each case.
`NC1CC(n2cc(Br)c(=O)[nH]c2=O)OC1CO` (stereo not given): the MIC against Serratia marcescens is over 200 µM; against Staphylococcus aureus, over 400 µM; in the experiment with Salmonella typhimurium, over 200 µM; in the experiment on Salmonella, over 200 µM; in the experiment with Escherichia coli it was over 200 µM; in the experiment with Proteus mirabilis, over 200 µM. For the same compound, the MIC against Citrobacter freundii, against Shigella flexneri, in the experiment with Klebsiella pneumoniae, against Proteus vulgaris, in the experiment on Vibrio cholerae and in the experiment with Pasteurella multocida was over 200 µM each time. Besides, the MIC against Pseudomonas aeruginosa and in the experiment on Klebsiella aerogenes was over 200 µM throughout. In addition, the EC50 was over 100 µM in the experiment on L cells, 100 µM in the experiment on unidentified adenovirus and over 100 µM with D-38.
As to `NC1CC(n2cc(I)c(=O)[nH]c2=O)OC1CO` (stereo not given), the MIC in the experiment with Serratia marcescens was over 200 µM; against Staphylococcus aureus it was over 400 µM; in the experiment with Salmonella typhimurium, over 200 µM; in the experiment on Salmonella it was over 200 µM; with Escherichia coli, over 200 µM; with Proteus mirabilis, over 200 µM. The minimal inhibitory concentration (MIC) in the experiment with Citrobacter freundii, against Shigella flexneri, against Klebsiella pneumoniae, against Proteus vulgaris, against Vibrio cholerae and in the experiment on Pasteurella multocida was over 200 µM each time. In addition, the MIC in the experiment with Pseudomonas aeruginosa and in the experiment with Klebsiella aerogenes was over 200 µM in each case. Moreover, the EC50 in the experiment on L cells, in the experiment with unidentified adenovirus and in the experiment on D-38 was over 100 µM in each case.
On to `NC1CC(n2cc(F)c(=O)[nH]c2=O)OC1CO` (stereo not given), for which the MIC was over 200 µM in the experiment with Serratia marcescens; 4 µM (≈ 0.981 µg/mL) in the experiment with Staphylococcus aureus; 40 µM (≈ 9.81 µg/mL) in the experiment with Priestia megaterium; over 200 µM with Salmonella typhimurium; over 200 µM in the experiment with Salmonella; 20 µM (≈ 4.9 µg/mL) against Enterococcus faecalis. Moreover, the MIC against Streptococcus pyogenes, against Proteus mirabilis, against Citrobacter freundii, in the experiment with Shigella flexneri, with Klebsiella pneumoniae and against Proteus vulgaris was over 200 µM throughout. Besides, the minimum inhibitory concentration (MIC) was over 200 µM in [1]; over 200 µM in the experiment on Candida albicans; over 200 µM against Vibrio cholerae; 20 µM (≈ 4.9 µg/mL) with Streptococcus agalactiae; over 200 µM against Pasteurella multocida; over 200 µM against Pseudomonas aeruginosa. Also, in the experiment on Klebsiella aerogenes, the MIC was over 200 µM. Further, the values for the EC50 with L cells, with unidentified adenovirus and in the experiment on D-38 were 100 µM, 10 µM and over 100 µM, respectively. Besides, in the experiment with P388, the outcome was inactive.
On to `NC1CC(n2cc(Cl)c(=O)[nH]c2=O)OC1CO` (stereo not given), for which the MIC against Serratia marcescens, in the experiment on Staphylococcus aureus, in the experiment on Salmonella typhimurium, in the experiment on Salmonella, against Escherichia coli and against Proteus mirabilis was over 200 µM each time. For the same compound, the MIC against Citrobacter freundii, against Shigella flexneri, with Klebsiella pneumoniae, against Proteus vulgaris, against Vibrio cholerae and against Pasteurella multocida was over 200 µM in each case. Also, the MIC with Pseudomonas aeruginosa and against Klebsiella aerogenes was over 200 µM throughout. In addition, the values for the EC50 in the experiment on L cells, in the experiment on unidentified adenovirus and in the experiment on D-38 were 100 µM, 100 µM and over 100 µM, respectively.
